Measured values from patent publication US7541368B2, “Pyrazoles as inhibitors of tumor necrosis factor” (Aventis Pharmaceuticals Inc., priority 2003, dated 2009).

Assays:
[1] = molecular target: T1, Inactive N-terminal His6 tagged murine P38 (Mus musculus, UniProt P47811); experiment: p38 cascade assay (HTRF; inactive p38 activated by MKK-6, ATF-2 phosphorylation); format: biochemical; conditions: inactive p38 preincubated with compound, then MKK-6, ATF-2, ATP; read-out: 50% inhibition in the p38 cascade assay at concentrations within the range
T1 construct: His6 (N); made in house
T1 sequence (P47811 whole entry): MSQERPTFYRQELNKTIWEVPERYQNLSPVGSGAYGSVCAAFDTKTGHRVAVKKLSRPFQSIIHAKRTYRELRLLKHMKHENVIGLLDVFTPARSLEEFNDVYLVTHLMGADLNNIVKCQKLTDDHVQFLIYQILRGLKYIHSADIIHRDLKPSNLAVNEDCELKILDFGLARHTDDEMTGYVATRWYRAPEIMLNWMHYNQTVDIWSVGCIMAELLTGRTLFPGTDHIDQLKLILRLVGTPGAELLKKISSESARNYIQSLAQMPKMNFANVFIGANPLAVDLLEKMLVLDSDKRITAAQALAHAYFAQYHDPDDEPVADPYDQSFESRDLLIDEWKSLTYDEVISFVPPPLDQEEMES
Method: The homogeneous time resolved fluorescence method (HTRF) assay measured the phosphorylation of human activating transcription factor (ATF)-2 protein by P38 following activation by MKK-6 and was run in A384 well plate format. […] MBP-tagged mouse MKK-6 (final concentration 50 nM), GST-tagged ATF-2 (fmal concentration 200 nM) and ATP (final concentration 50 μM) were then added and the incubation continued for 90 min. p38, MKK-6 and ATF-2 were prepared in the Protein Production Group, Aventis Pharmaceuticals. XL665 labeled anti-GST antibody (Cis Bio International) and cryptate labeled anti-pbospho-ATF2 antibody (Cis Bio International) were then added to generate the specific signal proportional to the phosphorylation of the substrate. The close proximity of XL665 labeled anti-GST antibody/phosphorylated GST-ATF2 complex and the cryptate labeled anti-phospho-ATF2 antibody results in a fluorescence transfer from cryptate to XL665. The resulting fluorescence signal was than read on a LJL Acquest set at multi-method mode using a fluorescence filter set (E=360 nm, Em=615/665 nm) with UV dichroic mirror (Integration time: 300000 μs). The results are reported as IC50 values. Compounds were tested over the concentration range of 3×10^−10M to 3×10^−5M.

[2] = tested on: TNF-alpha release in THP-1 cells; experiment: LPS-induced TNF-alpha release in THP-1 cells; format: cell-based; conditions: Homo sapiens, THP-1, LPS-stimulated THP-1 cells; read-out: 50% inhibition in the LPS-induced TNF-alpha release in THP-1 cells assay at concentrations within the range
Summary of the method: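 TNF-alpha in supernatants was quantified by sandwich ELISA against a log/log recombinant standard curve (0.125-16 ng/ml). Before this, THP-1 cells (1×10^6 cells/ml, serum-reduced) received compound at 1×10^−9 to 1×10^−6 M in 0.3% DMSO for 1 h, then LPS 20 μg/ml for 18 h.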

SMILES | IC50 [1] [µM] | IC50 [2] [µM]
Cc1ccc(-n2nc(C(C)(C)C)cc2NC(=O)Nc2cccc(CC3CCN(C(=O)c4sc(C)nc4C)CC3)c2)cc1 [Compound A28, 1-(5-tert-Butyl-2-p-tolyl-2H-pyrazol-3-yl)-3-{3-[1-(2,4-dimethyl-thiazole-5-carbonyl)-piperidin-4-ylmethyl]-phenyl}-urea] | 0.01 to 0.1 | 0.01 to 0.5
Cc1ccc(-n2nc(C(C)(C)C)cc2NC(=O)Nc2cccc(CC3CCN(C(=O)c4cccnc4Cl)CC3)c2)cc1 [Compound A42, 1-(5-tert-Butyl-2-p-tolyl-2H-pyrazol-3-yl)-3-{3-[1-(2-chloro-pyridine-3-carbonyl)-piperidin-4-ylmethyl]-phenyl}-urea] | 0.01 to 0.1 | 0.01 to 0.5
Cc1ccc(-n2nc(C(C)(C)C)cc2NC(=O)Nc2ccc(CC3CCN(C(=O)OCC(C)C)CC3)cc2)cc1 [Compound A1625, 4-{4-[3-(5-tert-Butyl-2-p-tolyl-2H-pyrazol-3-yl)-ureido]-benzyl}-piperidine-1-carboxylic acid isobutyl ester] | 0.01 to 0.1 | 0.01 to 0.5
Cc1ccc(-n2nc(C(C)(C)C)cc2NC(=O)Nc2cccc(CC3CCN(C(=O)c4ccc(C)s4)CC3)c2)cc1 [Compound A137, 1-(5-tert-Butyl-2-p-tolyl-2H-pyrazol-3-yl)-3-{3-[1-(5-methyl-thiophene-2-carbonyl)-piperidin-4-ylmethyl]-phenyl}-urea] | 0.01 to 0.1 | 0.01 to 0.5
Cc1ccc(-n2nc(C(C)(C)C)cc2NC(=O)Nc2cccc(CC3CCN(C(=O)C4(C)CC4)CC3)c2)cc1 [Compound A16, 1-(5-tert-Butyl-2-p-tolyl-2H-pyrazol-3-yl)-3-{3-[1-(1-methyl-cyclopropanecarbonyl)-piperidin-4-ylmethyl]-phenyl}-urea] | 0.01 to 0.1 | 0.01 to 0.5
COCC(=O)N1CCC(Cc2ccc(NC(=O)Nc3cc(C(C)(C)C)nn3-c3ccc(C)cc3)cc2)CC1 [Compound A367, 1-(5-tert-Butyl-2-p-tolyl-2H-pyrazol-3-yl)-3-{4-[1-(2-methoxy-acetyl)-piperidin-4-ylmethyl]-phenyl}-urea] | 0.01 to 0.1 | 0.01 to 0.5
Cc1ccc(-n2nc(C(C)(C)C)cc2NC(=O)Nc2ccc(CC3CCN(S(C)(=O)=O)CC3)cc2)cc1 [Compound A608, 1-(5-tert-Butyl-2-p-tolyl-2H-pyrazol-3-yl)-3-[4-(1-methanesulfonyl-piperidin-4-ylmethyl)-phenyl]-urea] | 0.01 to 0.1 | 0.01 to 0.5
Cc1ccc(-n2nc(C(C)(C)C)cc2NC(=O)Nc2cccc(CC3CCN(C(=O)c4cccnc4)CC3)c2)cc1 [Compound A181, 1-(5-tert-Butyl-2-p-tolyl-2H-pyrazol-3-yl)-3-{3-[1-(pyridine-3-carbonyl)-piperidin-4-ylmethyl]-phenyl}-urea] | 0.01 to 0.1 | 0.01 to 0.5
Cc1ccc(-n2nc(C(C)(C)C)cc2NC(=O)Nc2ccc(CC3CCN(C(=O)c4cnc(O)c(Cl)c4)CC3)cc2)cc1 [Compound A326, 1-(5-tert-Butyl-2-p-tolyl-2H-pyrazol-3-yl)-3-{4-[1-(5-chloro-6-hydroxy-pyridine-3-carbonyl)-piperidin-4-ylmethyl]-phenyl}-urea] | 0.01 to 0.1 | 0.01 to 0.5
Cc1ccc(-n2nc(C(C)(C)C)cc2NC(=O)Nc2cccc(CC3CC4CCC(C3)N4S(=O)(=O)c3ccc4c(c3)OCCN4C)c2)cc1 (stereo not drawn) [Compound A880, 1-(5-tert-Butyl-2-p-tolyl-2H-pyrazol-3-yl)-3-{3-[8-(4-methyl-3,4-dihydro-2H-benzo[1,4]oxazine-7-sulfonyl)-8-aza-bicyclo[3.2.1]oct-3-ylmethyl]-phenyl}-urea] | 0.01 to 0.1 | 
Cc1ccc(-n2nc(C(C)(C)C)cc2NC(=O)Nc2cccc(CC3CCN(C(=O)c4cc5ccccc5o4)CC3)c2)cc1 [Compound A1638, 1-{3-[1-(benzofuran-2-carbonyl)-piperidin-4-ylmethyl]-phenyl}-3-(5-tert-butyl-2-p-tolyl-2H-pyrazol-3-yl)-urea] | 0.01 to 0.1 | 
Cc1ccc(-n2nc(C(C)(C)C)cc2NC(=O)Nc2cccc(CC3CCN(C(=O)C4CCNCC4)CC3)c2)cc1 [Compound A1639, 1-(5-tert-Butyl-2-p-tolyl-2H-pyrazol-3-yl)-3-{3-[1-(piperidine-4-carbonyl)-piperidin-4-ylmethyl]-phenyl}-urea] | 0.01 to 0.1 | 
COc1ccc(OC(=O)N2CCC(Cc3ccc(NC(=O)Nc4cc(C(C)(C)C)nn4-c4ccc(C)cc4)cc3)CC2)cc1 [Compound A1605, 4-{4-[3-(5-tert-Butyl-2-p-tolyl-2H-pyrazol-3-yl)-ureido]-benzyl}-piperidine-1-carboxylic acid 4-methoxy-phenyl ester] | 0.01 to 0.1 | 
Cc1ccc(-n2nc(C(C)(C)C)cc2NC(=O)Nc2ccc(CC3CCN(C(=O)c4ccc(O)nc4)CC3)cc2)cc1 [Compound A333, 1-(5-tert-Butyl-2-p-tolyl-2H-pyrazol-3-yl)-3-{4-[1-(6-hydroxy-pyridine-3-carbonyl)-piperidin-4-ylmethyl]-phenyl}-urea] | 0.01 to 0.1 | 
Cc1ccc(-n2nc(C(C)(C)C)cc2NC(=O)Nc2ccc(CC3CC4CCC(C3)N4C(=O)c3cccc(C)n3)cc2)cc1 (stereo not drawn) [Compound A1640, 1-(5-tert-Butyl-2-p-tolyl-2H-pyrazol-3-yl)-3-{4-[8-(6-methyl-pyridine-2-carbonyl)-8-aza-bicyclo[3.2.1]oct-3-ylmethyl]-phenyl}-urea] | 0.01 to 0.1 | 
CC(=O)N1CCC(Cc2ccc(NC(=O)Nc3cc(C(C)(C)C)nn3-c3ccc(C)cc3)cc2)CC1 [Compound A1637, 1-[4-(1-acetyl-piperidin-4-ylmethyl)-phenyl]-3-(5-tert-butyl-2-p-tolyl-2H-pyrazol-3-yl)-urea] | 0.01 to 0.1 | 

Further lines, results first:

IC50 [1] [µM] | IC50 [2] [µM] | SMILES
0.01 to 0.1 | 0.01 to 0.5 | Cc1ccc(-n2nc(C(C)(C)C)cc2NC(=O)Nc2cccc(CC3CCN(C(=O)Cc4ccccc4F)CC3)c2)cc1 [Compound A43, 1-(5-tert-Butyl-2-p-tolyl-2H-pyrazol-3-yl)-3-(3-{1-[2-(2-fluoro-phenyl)-acetyl]-piperidin-4-ylmethyl}-phenyl)-urea]
0.01 to 0.1 | 0.01 to 0.5 | COCC(=O)N1CCC(Cc2cccc(NC(=O)Nc3cc(C(C)(C)C)nn3-c3ccc(C)cc3)c2)CC1 [Compound A173, 1-(5-tert-Butyl-2-p-tolyl-2H-pyrazol-3-yl)-3-{3-[1-(2-methoxy-acetyl)-piperidin-4-ylmethyl]-phenyl}-urea]
0.01 to 0.1 | 0.01 to 0.5 | Cc1ccc(-n2nc(C(C)(C)C)cc2NC(=O)Nc2cccc(CC3CCN(C(=O)c4csc(-c5cccnc5)n4)CC3)c2)cc1 [Compound A32, 1-(5-tert-Butyl-2-p-tolyl-2H-pyrazol-3-yl)-3-{3-[1-(2-pyridin-3-yl-thiazole-4-carbonyl)-piperidin-4-ylmethyl]-phenyl}-urea]
0.01 to 0.1 | 0.01 to 0.5 | COc1ccc(OC)c(C(=O)N2CCC(Cc3cccc(NC(=O)Nc4cc(C(C)(C)C)nn4-c4ccc(C)cc4)c3)CC2)c1 [Compound A1636, 1-(5-tert-Butyl-2-p-tolyl-2H-pyrazol-3-yl)-3-{3-[1-(2,5-dimethoxy-benzoyl)-piperidin-4-ylmethyl]-phenyl}-urea]
0.01 to 0.1 | 0.01 to 0.5 | Cc1ccc(-n2nc(C(C)(C)C)cc2NC(=O)Nc2ccc(CC3CCN(C(=O)c4occc4C)CC3)cc2)cc1 [Compound A289, 1-(5-tert-Butyl-2-p-tolyl-2H-pyrazol-3-yl)-3-{4-[1-(3-methyl-furan-2-carbonyl)-piperidin-4-ylmethyl]-phenyl}-urea]
0.01 to 0.1 |  | CC(=O)Nc1cccc(C(=O)N2C3CCC2CC(Cc2cccc(NC(=O)Nc4cc(C(C)(C)C)nn4-c4ccc(C)cc4)c2)C3)c1 (stereo not drawn) [Compound A707, N-[3-(3-{3-[3-(5-tert-Butyl-2-p-tolyl-2H-pyrazol-3-yl)-ureido]-benzyl}-8-aza-bicyclo[3.2.1]octane-8-carbonyl)-phenyl]-acetamide]
0.01 to 0.1 |  | COC(=O)CCC(=O)N1CCC(Cc2cccc(NC(=O)Nc3cc(C(C)(C)C)nn3-c3ccc(C)cc3)c2)CC1 [Compound A174, 4-(4-{3-[3-(5-tert-Butyl-2-p-tolyl-2H-pyrazol-3-yl)-ureido]-benzyl}-piperidin-1-yl)-4-oxo-butyric acid methyl ester]
0.01 to 0.1 |  | Cc1ccc(-n2nc(C(C)(C)C)cc2NC(=O)Nc2ccc(CC3CCN(C(=O)c4coc5c4C(=O)CCC5)CC3)cc2)cc1 [Compound A342, 1-(5-tert-Butyl-2-p-tolyl-2H-pyrazol-3-yl)-3-{4-[1-(4-oxo-4,5,6,7-tetrahydro-benzofuran-3-carbonyl)-piperidin-4-ylmethyl]-phenyl}-urea]
0.01 to 0.1 |  | CC(=O)C(=CC(=O)c1ccccc1)NC(=O)N1CCC(Cc2ccc(NC(=O)Nc3cc(C(C)(C)C)nn3-c3ccc(C)cc3)cc2)CC1 [Compound A1641, 4-{4-[3-(5-tert-Butyl-2-p-tolyl-2H-pyrazol-3-yl)-ureido]-benzyl}-piperidine-1-carboxylic acid (1-acetyl-3-oxo-3-phenyl-propenyl)-amide]
